Holding throughout (format): cell-based, mouse
In assay [1] the test system is lipoprotein lipase (LPL). Put plainly: Northern blotting for lipoprotein lipase in M2 cells. The following applies: 10 μM Tro with 10 μM 20S, 10 days (FIGS. 7C and D). As for the experimental part: (§1) RNA isolation and Northern blot analysis - Following treatment of cells under appropriate experimental conditions, total RNA was isolated using the RNA isolation kit from Stratagene (La Jolla, Calif., U.S.A.). Total RNA ([…]) was run on a 1% agarose/formaldehyde gel and transferred to Duralon-UV membranes (Strategene, CA, U.S.A.) and cross-linked with UV light. The membranes were hybridized overnight at 60° C. with ^32P-labeled mouse osteocalcin cDNA probe, mouse lipoprotein lipase (LPL), mouse adipocyte protein 2 (aP2) PCR-generated probes, human 28S or 18S rRNA probes obtained from Geneka Biotechnology (Montreal, Quebec, Canada) and Maxim Biotech (San Francisco, CA, U.S.A.), respectively. […] The extent of gene induction was determined by densitometry.
(§2) Test 2: (A) M2 cells at confluence were treated in RPMI containing 10% FBS with control vehicle or 10 μM troglitazone (Tro) in the absence or presence of 10 μM 20S or 22S oxysterols. After 10 days, adipocytes were visualized by oil Red O staining and quantified by light microscopy, shown in (B). […] After 10 days, total RNA was isolated and analyzed for lipoprotein lipase (LPL), adipocyte P2 gene (aP2) or 18S rRNA expression by Northern blotting as described (Ref). […]

In assay [2] the test system is osteocalcin mRNA in M2 cells. Kind of assay: Northern blotting for osteocalcin mRNA in M2 cells. The following applies: 0.5-10 μM, as many as 14 days, data not shown. As for the experimental part: The extent of gene induction was determined by densitometry.
After 4 and 8 days, total RNA from duplicate samples was isolated and analyzed for osteocalcin (Osc) and 28S rRNA expression by Northern blotting as described. FIG. 3E is a radiogram of Northern blotting for osteocalcin mRNA in M2 cells exposed to a control or combination of oxysterols for 4 or 8 days. FIG. 3F is a bar graph depicting the relative demsometric units of osteocalcin mRNA in M2 cells exposed to a control or combination of oxysterols for 4 or 8 days. Data from densitometric analysis of the Northern blot is shown in (F) as the average of duplicate samples, normalized to 28S rRNA.
Next, a combination of 22R and 20S oxysterols (RS, 2.5 μM each) were added in the presence or absence of SC as indicated. After 3 days, ALP activity was measured as described earlier. […] (B) M2 cells were treated as described in (A) and after 10 days matrix mineralization in cultures was quantified by a ^45Ca incorporation assay as described earlier. Results from a representative of three experiments are shown, reported as the mean±SD of quadruplicate determinations, normalized to protein concentration. (C) M2 cells were pretreated with 20 μM SC for 4 hours, followed by the addition of RS in the presence or absence of SC as described above. After 8 days, total RNA was isolated and analyzed for osteocalcin (Osc) and 18S rRNA expression by Northern blotting as previously described. Data from densitometric analysis of the Northern blot is shown in (D) as the average of duplicate samples, normalized to 18S rRNA. (E) M2 cells at confluence were pretreated for 2 hours with control vehicle (C), or PLA2 inhibitors ACA (25 μM) and MCOCF3 (MC, 20 μM), in osteogenic medium. Next, a combination of 22R and 20S oxysterols (RS, 2.5 μM) was added in the presence or absence of the inhibitors as indicated. After 3 days, ALP activity was measured as previously described. Data from a representative of three experiments are shown, reported as the mean±SD of quadruplicate determinations, normalized to protein concentration (p<0.01 for RS vs. RS+ACA and RS+MC). (F) M2 cells were treated as described in (E).

Assay [3] has as its system adipocyte P2 gene (aP2). Put plainly: Northern blotting for adipocyte P2 gene in M2 cells. The following applies: 10 μM Tro with 10 μM 20S, 10 days (FIGS. 7C and D). As for the experimental part:
as §1, §2

For assay [4], the system named is M2 cells. Kind of assay: Adipogenesis of M2 cells, oil Red O staining and adipocyte count. The following applies: 10 μM Tro, 10 μM oxysterols, alone or in combination, 10 days (FIG. 7). As for the experimental part: Von Kossa and oil red O staining—Matrix mineralization in cell monolayers was detected by silver nitrate staining as previously described. Oil red O staining for detection of adipocytes was performed as previously described.
Test 1: M2 cells at 90% confluence were treated with vehicle (C), PPAR-γ activator, troglitazone 10 uM (Tro), alone or in combination with 10 μM oxysterols 20S-, 22R-, or 25S-hydroxycholesterol. After 8 days, adipocytes were identified by oil Red O staining and quantified by counting under a phase contrast microscope. FIG. 6A is a bar graph depicting the effect of oxysterols on reducing adipogenesis of MSC.
Test 2: (A) M2 cells at confluence were treated in RPMI containing 10% FBS with control vehicle or 10 μM troglitazone (Tro) in the absence or presence of 10 μM 20S or 22S oxysterols. After 10 days, adipocytes were visualized by oil Red O staining and quantified by light microscopy, shown in (B). Data from a representative of four experiments are shown, reported as the mean SD of quadruplicate determinations (p<0.001 for Tro vs. Tro+20S and Tro+22S). (C) M2 cells were treated at confluence with 10 μM Tro, alone or in combination with 10 μM 20S oxysterol. After 10 days, total RNA was isolated and analyzed for lipoprotein lipase (LPL), adipocyte P2 gene (aP2) or 18S rRNA expression by Northern blotting as described (Ref). Data from densitometric analysis of the Northern blot is shown in (D) as the average of duplicate samples, normalized to 18S rRNA.

As to `CC(C)CCC[C@](C)(O)[C@H]1CC[C@H]2[C@@H]3CC=C4C[C@@H](O)CC[C@]4(C)[C@H]3CC[C@@]21C` [20S, 20(S)-hydroxycholesterol], the “expression of lipoprotein lipase (LPL)” value in assay [1] was “inhibition of the expression”. Besides, in assay [2], the “induction of osteocalcin gene expression, individual oxysterols” value (from here on “induction of osteocalcin gene expression”) is “unable to induce”. The “expression of adipocyte P2 gene (aP2)” value in assay [3] is reported as “inhibition of the expression”. Moreover, in assay [4], the “adipogenesis induced by troglitazone” value is given as “inhibited adipogenesis”.

As to `CC(C)CC[C@@H](O)[C@@H](C)[C@H]1CC[C@H]2[C@@H]3CC=C4C[C@@H](O)CC[C@]4(C)[C@H]3CC[C@]12C` [22R, 22(R)-hydroxycholesterol], the “induction of osteocalcin gene expression” value in assay [2] is recorded as “unable to induce”. Moreover, in assay [4], the “adipogenesis induced by troglitazone” value was “inhibited adipogenesis”.

As to `CC(C)CC[C@H](O)[C@@H](C)[C@H]1CC[C@H]2[C@@H]3CC=C4C[C@@H](O)CC[C@]4(C)[C@H]3CC[C@]12C` [22S, 22(S)-hydroxycholesterol], the “induction of osteocalcin gene expression” value in assay [2] is recorded as “unable to induce”. The “adipogenesis induced by troglitazone” value in assay [4] is “inhibited adipogenesis”.

The record behind these values is patent publication US9532994B2, “Agents and methods for enhancing bone formation by oxysterols in combination with bone morphogenic proteins” (THE REGENTS OF THE UNIVERSITY OF CALIFORNIA, priority 2003, dated 2017).
